ChEMBL document CHEMBL1201862, “PubChem BioAssay data set” (2004)
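Step 1: Grow cells in 96-well plates. Step 2: Expose to compound for 48 hours at 5 concentrations. Step 3: Interpolate endpoints linearly; if unreached, use highest concentration. GI50 marks 50% less growth.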 Activity calls are given as the source filed them. No stated cut-off is given here; in the data, active = GI50 up to about 1.1 µM and inactive = higher.

Key:
Test in all cases: growth of human tumour cells (NCI), 48 h
A549 = tested on: A549
CCRF-CEM = tested on: CCRF-CEM
HCT-116 = tested on: HCT-116
HT-29 = tested on: HT-29
IGROV-1 = tested on: IGROV-1
K562 = tested on: K562
KM12 = tested on: KM12
M14 = tested on: M14
MDA-MB-231 = tested on: MDA-MB-231
MDA-MB-435 = tested on: MDA-MB-435
NCI/ADR-RES = tested on: NCI/ADR-RES
OVCAR-4 = tested on: OVCAR-4
OVCAR-8 = tested on: OVCAR-8
RXF 393 = tested on: RXF 393
SF-295 = tested on: SF-295
SK-MEL-5 = tested on: SK-MEL-5
SK-OV-3 = tested on: SK-OV-3
SW-620 = tested on: SW-620
UACC-62 = tested on: UACC-62
Hs-578T = tested on: Hs-578T

Compound | GI50 (A549) | GI50 (CCRF-CEM) | GI50 (HCT-116) | GI50 (HT-29) | GI50 (IGROV-1) | GI50 (K562) | GI50 (KM12) | GI50 (M14) | GI50 (MDA-MB-231) | GI50 (MDA-MB-435) | GI50 (NCI/ADR-RES) | GI50 (OVCAR-4) | GI50 (OVCAR-8) | GI50 (RXF 393) | GI50 (SF-295) | GI50 (SK-MEL-5) | GI50 (SK-OV-3) | GI50 (SW-620) | GI50 (UACC-62) | GI50 (Hs-578T)
COc1cc(/C=C2\C(=O)N(c3cccc([N+](=O)[O-])c3)C(c3ccccc3)S2(=O)=O)cc(OC)c1OC (stereo not drawn) | > 100 µM (inactive) | 62.2 µM (inactive) | > 100 µM (inactive) | > 100 µM (inactive) | > 100 µM (inactive) | 49.4 µM (inactive) | 92.7 µM (inactive) | > 100 µM (inactive) | > 100 µM (inactive) | 32.3 µM (inactive) | > 100 µM (inactive) | 80 µM (inactive) | > 100 µM (inactive) | > 100 µM (inactive) | 97.5 µM (inactive) | > 100 µM (inactive) | > 100 µM (inactive) | 94.4 µM (inactive) | 80.7 µM (inactive) | 
CC1SC2(CCCCC2)N(NC(=O)CSc2nc3ccc(Cl)cc3c(=O)n2-c2ccccc2)C1=O (stereo not drawn) | 28.8 µM (inactive) | 34.4 µM (inactive) | 14 µM (inactive) | 16.6 µM (inactive) | 12 µM (inactive) | 19.5 µM (inactive) | 30.1 µM (inactive) | 20 µM (inactive) | 18.3 µM (inactive) | 23.4 µM (inactive) | 22.1 µM (inactive) | 30.4 µM (inactive) | 26.1 µM (inactive) | 19.3 µM (inactive) | 18.5 µM (inactive) | 14.3 µM (inactive) | 33.3 µM (inactive) | 27.9 µM (inactive) | 18 µM (inactive) | 
COc1cc(CC(C)N)ccc1O (stereo not drawn) | > 100 µM (inactive) | > 31.6 µM (inactive) | > 100 µM (inactive) | > 100 µM (inactive) | > 100 µM (inactive) | > 100 µM (inactive) | > 100 µM (inactive) | > 100 µM (inactive) |  |  | > 100 µM (inactive) | > 100 µM (inactive) | > 100 µM (inactive) | > 100 µM (inactive) | > 100 µM (inactive) | > 100 µM (inactive) | > 100 µM (inactive) | > 100 µM (inactive) | > 100 µM (inactive) | > 100 µM (inactive)
S=c1[nH]nc(Cn2c3ccc(Br)cc3c3nc4ccccc4nc32)n1C1CCCCC1 | 21.2 µM (inactive) | 25.6 µM (inactive) | 12.1 µM (inactive) | 16.1 µM (inactive) | 21.4 µM (inactive) | 25.9 µM (inactive) | 32.7 µM (inactive) | 29.8 µM (inactive) | 36.5 µM (inactive) | 20.3 µM (inactive) | 27 µM (inactive) | 13.7 µM (inactive) | 22.6 µM (inactive) | 18.5 µM (inactive) | 16.7 µM (inactive) | 6.87 µM (inactive) | 26.5 µM (inactive) | 25.3 µM (inactive) | 16.1 µM (inactive) | 
Cn1c2c(c3c(=O)[nH]ncc31)CCCc1ccccc1-2 | 27.2 µM (inactive) | 34.5 µM (inactive) | 18.1 µM (inactive) | 28.4 µM (inactive) | 24.5 µM (inactive) | 11.3 µM (inactive) | 37.3 µM (inactive) | 39.3 µM (inactive) | 27.5 µM (inactive) | 20.9 µM (inactive) | 36.7 µM (inactive) | 37.4 µM (inactive) | 24.9 µM (inactive) |  | 32.5 µM (inactive) | 16.1 µM (inactive) | 25.7 µM (inactive) | 34.3 µM (inactive) | 28.7 µM (inactive) | 20.9 µM (inactive)
N#Cc1c(N)[nH]c(=S)c(C#N)c1-c1cccc(Cl)c1 | 63.7 µM (inactive) |  | 24.4 µM (inactive) | 34.2 µM (inactive) | 32.9 µM (inactive) | 26.2 µM (inactive) | 43.3 µM (inactive) | 36.5 µM (inactive) | 29.4 µM (inactive) | 21.4 µM (inactive) | 67.1 µM (inactive) | 40.7 µM (inactive) | 30.1 µM (inactive) | 22.4 µM (inactive) | 34.9 µM (inactive) | 20.2 µM (inactive) |  | 24.4 µM (inactive) | 29.6 µM (inactive) | 26.7 µM (inactive)
Cc1occc(=O)c1O [MALTOL] | > 100 µM (inactive) | > 100 µM (inactive) | > 100 µM (inactive) | > 100 µM (inactive) | > 100 µM (inactive) | > 100 µM (inactive) | > 100 µM (inactive) | > 100 µM (inactive) | 3.84 µM (inactive) | > 100 µM (inactive) | > 100 µM (inactive) | > 100 µM (inactive) | > 100 µM (inactive) |  | > 100 µM (inactive) | > 100 µM (inactive) |  | > 100 µM (inactive) |  | > 100 µM (inactive)
O=C(NCCN(CCNC(=O)c1cccc(O)c1O)CCNC(=O)c1cccc(O)c1O)c1cccc(O)c1O [TRENCAM] | 15 µM (inactive) |  | 4.2 µM (inactive) | 5.31 µM (inactive) | 4.73 µM (inactive) | 5.28 µM (inactive) | 4.4 µM (inactive) | 5.55 µM (inactive) | 6.07 µM (inactive) | 21.7 µM (inactive) | 49.4 µM (inactive) | 0.578 µM (active) | 3.15 µM (inactive) | 7.87 µM (inactive) | 25.4 µM (inactive) | 2.75 µM (inactive) | 16.7 µM (inactive) | 2.4 µM (inactive) | 4.78 µM (inactive) | 29.7 µM (inactive)
COc1ccc(-c2nc(-c3cnccn3)n(COCCO)n2)cc1 | > 100 µM (inactive) | > 100 µM (inactive) | > 100 µM (inactive) | > 100 µM (inactive) | > 100 µM (inactive) | > 100 µM (inactive) | > 100 µM (inactive) | > 100 µM (inactive) | > 100 µM (inactive) | > 100 µM (inactive) | > 100 µM (inactive) | > 100 µM (inactive) | > 100 µM (inactive) | > 100 µM (inactive) | > 100 µM (inactive) | > 100 µM (inactive) | > 100 µM (inactive) | > 100 µM (inactive) | > 100 µM (inactive) | 
COC(=O)CCCC1(CCCC(=O)OC)CCCCCCCCC(CCCC(=O)OC)(CCCC(=O)OC)C(=O)C1=O | 11.6 µM (inactive) |  | 9.44 µM (inactive) | 43.5 µM (inactive) | 18.4 µM (inactive) | 4.78 µM (inactive) | 38.8 µM (inactive) | 70.1 µM (inactive) |  | 86.1 µM (inactive) | 40.2 µM (inactive) | 17.3 µM (inactive) | 50.7 µM (inactive) | 1.6 µM (inactive) | > 100 µM (inactive) | 53.1 µM (inactive) | > 100 µM (inactive) | > 100 µM (inactive) | 13.6 µM (inactive) | 14.8 µM (inactive)
Cc1ccc(C(=O)OCC(C)C)cc1/N=N/N(C)C | > 79.4 µM (inactive) | > 100 µM (inactive) | > 61.9 µM (inactive) | 16.1 µM (inactive) | > 100 µM (inactive) | > 100 µM (inactive) | 38.8 µM (inactive) | 67 µM (inactive) | > 100 µM (inactive) | 95.9 µM (inactive) | 97.1 µM (inactive) | > 71.8 µM (inactive) | > 100 µM (inactive) |  | 27 µM (inactive) | > 60.4 µM (inactive) | > 100 µM (inactive) | > 100 µM (inactive) | > 100 µM (inactive) | > 100 µM (inactive)
CCOP(=O)(C=C=C(C)C)OCC | > 100 µM (inactive) |  | > 100 µM (inactive) | > 100 µM (inactive) | > 100 µM (inactive) | > 100 µM (inactive) | > 100 µM (inactive) | > 100 µM (inactive) |  | > 100 µM (inactive) | > 100 µM (inactive) | > 100 µM (inactive) | > 100 µM (inactive) | > 100 µM (inactive) | > 100 µM (inactive) | > 100 µM (inactive) | > 100 µM (inactive) | > 100 µM (inactive) | > 100 µM (inactive) | > 100 µM (inactive)
Cc1ccc2nc(-c3ccc(-c4nc5ccc(C)cc5o4)c(O)c3)oc2c1 | > 100 µM (inactive) | > 100 µM (inactive) | > 100 µM (inactive) |  |  | > 100 µM (inactive) |  | > 100 µM (inactive) | > 100 µM (inactive) | > 100 µM (inactive) | > 100 µM (inactive) |  | > 100 µM (inactive) |  |  | > 100 µM (inactive) | > 100 µM (inactive) | > 100 µM (inactive) | > 100 µM (inactive) | > 100 µM (inactive)
NC(=O)/C=C/c1c[nH]c2nccnc12 | 4.41 µM (inactive) | 0.656 µM (active) | 1.59 µM (inactive) | 2.68 µM (inactive) | 3.83 µM (inactive) | 0.966 µM (active) | 2.93 µM (inactive) | 3.97 µM (inactive) | 3.71 µM (inactive) | 3.59 µM (inactive) | 2.89 µM (inactive) | 4.09 µM (inactive) | 2.86 µM (inactive) | 1.99 µM (inactive) | 3.26 µM (inactive) | 2.25 µM (inactive) | 3.95 µM (inactive) | 0.891 µM (active) | 2.76 µM (inactive) | 
O=C(CNCc1ccccc1)Oc1c(Cl)c(Cl)c(Cl)c(Cl)c1Cl | 30.4 µM (inactive) |  | > 100 µM (inactive) | 32.7 µM (inactive) | 33.1 µM (inactive) | 34.8 µM (inactive) | 21.8 µM (inactive) | 77.8 µM (inactive) | 25.4 µM (inactive) | 35.2 µM (inactive) | 33.7 µM (inactive) | 44.1 µM (inactive) | 21.4 µM (inactive) | 74.8 µM (inactive) | 27.2 µM (inactive) |  | 47 µM (inactive) | 32.5 µM (inactive) | 21.5 µM (inactive) | 17.3 µM (inactive)
